Values quoted from earlier work, collected in US20160250154A1, “FILM DELIVERY SYSTEM FOR ACTIVE INGREDIENTS” (MonoSol Rx, LLC, priority 2013, published 2016).

Settings: MSDS from PI Chemical

## CCCCCCCCCCC(=O)O[C@H]1CC[C@H]2[C@@H]3CCC4=CC(=O)CC[C@]4(C)[C@H]3CC[C@]12C [Testosterone Undecanoate]
  classification of solubility in water: insoluble in water
